Legend:
Assay in all cases: relative viability (nuclei count vs DMSO), 5 days (fraction); higher = more cells survive
RU-SKI 43 + Bortezomib = compound: CC[C@@H](C)CNCC(=O)N1CCC2=C([C@@H]1COC3=CC=CC(=C3)C)C=CS2 [RU-SKI 43] + CC(C)C[C@H](NC(=O)[C@H](Cc1ccccc1)NC(=O)c1cnccn1)B(O)O [Bortezomib] (partner 0.002 µM)
Procedure, shortened: (§1)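 Relative viability equals treated-well nuclei counts divided by vehicle-well nuclei counts. Counts came from 4× images of lung cancer cell lines grown in 1536-well plates for 5 days after pin-tool dosing on the day after seeding. Dosing used one drug alone or a fixed anchor-drug dose plus five library-drug doses (not always all listed) in √10 steps, and values are medians of duplicate plates.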

RU-SKI 43 + Linsitinib = compound: CC[C@@H](C)CNCC(=O)N1CCC2=C([C@@H]1COC3=CC=CC(=C3)C)C=CS2 [RU-SKI 43] + C[C@]1(O)C[C@@H](c2nc(-c3ccc4ccc(-c5ccccc5)nc4c3)c3c(N)nccn32)C1 [Linsitinib] (partner 1 µM)
Procedure, shortened: as §1

RU-SKI 43 + Phenformin = compound: CC[C@@H](C)CNCC(=O)N1CCC2=C([C@@H]1COC3=CC=CC(=C3)C)C=CS2 [RU-SKI 43] + N=C(N)NC(=N)NCCc1ccccc1 [Phenformin] (partner 250 µM)
Procedure, shortened: as §1

MK-8033 + Dasatinib = compound: Cn1cc(-c2cnc3ccc4ccc(CS(=O)(=O)NCc5ccccn5)cc4c(=O)c3c2)cn1 [MK-8033] + Cc1nc(Nc2ncc(C(=O)Nc3c(C)cccc3Cl)s2)cc(N2CCN(CCO)CC2)n1 [Dasatinib] (partner 0.075 µM)
Procedure, shortened: as §1

| Cell Line | relative viability (RU-SKI 43 + Bortezomib; first compound 0.1 µM) | relative viability (RU-SKI 43 + Bortezomib; first compound 0.3162 µM) | relative viability (RU-SKI 43 + Bortezomib; first compound 1 µM) | relative viability (RU-SKI 43 + Bortezomib; first compound 3.162 µM) | relative viability (RU-SKI 43 + Bortezomib; first compound 10 µM) | relative viability (RU-SKI 43 + Linsitinib; first compound 0.1 µM) | relative viability (RU-SKI 43 + Linsitinib; first compound 0.3162 µM) | relative viability (RU-SKI 43 + Linsitinib; first compound 1 µM) | relative viability (RU-SKI 43 + Linsitinib; first compound 3.162 µM) | relative viability (RU-SKI 43 + Linsitinib; first compound 10 µM) | relative viability (RU-SKI 43 + Phenformin; first compound 0.1 µM) | relative viability (RU-SKI 43 + Phenformin; first compound 0.3162 µM) | relative viability (RU-SKI 43 + Phenformin; first compound 1 µM) | relative viability (RU-SKI 43 + Phenformin; first compound 3.162 µM) | relative viability (RU-SKI 43 + Phenformin; first compound 10 µM) | relative viability (MK-8033 + Dasatinib; first compound 0.02 µM) | relative viability (MK-8033 + Dasatinib; first compound 0.06325 µM) | relative viability (MK-8033 + Dasatinib; first compound 0.2 µM) | relative viability (MK-8033 + Dasatinib; first compound 0.6325 µM) | relative viability (MK-8033 + Dasatinib; first compound 2 µM) |
| --- | --- | --- | --- | --- | --- | --- | --- | --- | --- | --- | --- | --- | --- | --- | --- | --- | --- | --- | --- | --- |
| NCI-H596 | 1.32 | 0.93 | 1.34 | 0.936 | 1.1 | 1.14 | 1.07 | 1.08 | 1.02 | 0.96 | 0.776 | 0.808 | 0.725 | 0.921 | 0.77 | 0.55 | 0.535 | 0.586 | 0.626 | 0.455 |
| NCI-H322M | 1.2 | 1.3 | 1.3 | 1.24 | 1.28 | 0.832 | 0.915 | 0.967 | 1.02 | 0.893 | 0.718 | 0.758 | 0.832 | 0.833 | 0.771 | 0.283 | 0.243 | 0.238 | 0.263 | 0.261 |
| NCI-H1993 | 1.04 | 1.01 | 1.15 | 1.1 | 0.756 | 0.745 | 0.732 | 0.661 | 0.721 | 0.762 | 0.526 | 0.5 | 0.471 | 0.511 | 0.487 | 0.482 | 0.493 | 0.533 | 0.468 | 0.502 |
| CAL-12T | 0.967 | 1 | 1.3 | 0.961 | 0.964 | 0.726 | 0.873 | 0.877 | 0.827 | 0.771 | 0.645 | 0.65 | 0.616 | 0.596 | 0.589 | 0.478 | 0.3 | 0.405 | 0.367 | 0.456 |
| COR-L23 | 1.18 | 0.714 | 1.12 | 1.14 | 1.03 | 0.971 | 0.847 | 0.815 | 0.83 | 1.09 | 0.426 | 0.544 | 0.46 | 0.553 | 0.421 | 0.458 | 0.427 | 0.522 | 0.466 | 0.489 |
| NCI-H2347 | 0.951 | 1.16 | 1.01 | 0.976 | 0.994 | 1 | 1.19 | 1.07 | 0.94 | 1.01 | 0.34 | 0.352 | 0.544 | 0.36 | 0.383 | 0.288 | 0.317 | 0.314 | 0.362 | 0.354 |
| LU99A | 1.08 | 1.3 | 1.15 | 1.23 | 1.03 | 0.484 | 0.596 | 0.58 | 0.597 | 0.505 | 0.862 | 0.955 | 0.863 | 0.871 | 0.654 | 0.61 | 0.442 | 0.626 | 0.542 | 0.445 |
| COR-L 105 | 0.893 | 0.726 | 0.83 | 0.963 | 0.616 | 0.955 | 1.08 | 1.02 | 1.08 | 0.945 | 0.486 | 0.519 | 0.555 | 0.439 | 0.515 | 0.368 | 0.303 | 0.328 | 0.335 | 0.402 |

From the supplement of paper PMC10307832
